The source of these data is US20260137699A1, “OXAZEPINE COMPOUNDS COMPRISING A 6-AZA MOIETY AND USES THEREOF” (Genentech, Inc., priority 2022, published 2026).

Holding throughout (format): cell-based
One test has as its system HPAC cells. Briefly: HPAC 3D proliferation assay (CellTiter-Glo 3D). The note with it: Homo sapiens, 168 h, 3D culture, 7 days, read-out: HPAC CTG IC50. Here is the method: (§1) Compound potencies were assessed in proliferation assays conducted with SW620 and HPAC cell lines grown in 3D cultures. Cells were seeded into 96- or 384-well ultra-low attachment plates at 3000 or 1000 cells/well, respectively, in culture medium (RPMI-1640, 10% FBS, 2 mM L-glutamine). The plated cells were centrifuged briefly, allowed to rest for 30 minutes under ambient conditions, and cultured overnight at 37° C./5% C02 to initiate the formation of spheroids. Compound dilutions were prepared across a range of concentrations in DMSO and added to the appropriate wells of the assay plates with a 333-fold dilution into the culture medium. The plates were further incubated for 7 days. The quantity of viable cells was assessed using CellTiter-Glo 3D Cell Viability Assay (Promega). The detection reagent penetrates the spheroids and lyses the cells. The released ATP that was detected with luciferase and a luciferase substrate to generate a luminescent readout. […] The data points were fit to a 4-parameter logistic equation to determine IC50 values.
On the technique in general: Cellular ATP, detected with luciferase, serves as a proxy for viable cell number.

For the next test, the system named is pERK in SW620 cells. Briefly: SW620 pERK assay. The note with it: Homo sapiens, SW-620, SW620.
The subject of a further test is H1975 cells. Put plainly: H1975 CTG proliferation assay. The settings on record: Homo sapiens, NCI-H1975, H1975.
A further test has as its system SW620 cells. Put plainly: SW620 3D proliferation assay (CellTiter-Glo 3D). The note with it: Homo sapiens, SW-620, 168 h, SW620, 3D culture, 7 days, read-out: SW620 CTG IC50. The method, then:
as §1

Regarding `C[C@H](c1cccnc1N)N1CCOc2nc(-c3cccc4sc(N)nc34)c(F)c3nc(OC[C@@]45CCCN4C[C@H](F)C5)nc1c23` [Example 24, 4-(10-((R)-1-(2-aminopyridin-3-yl)ethyl)-4-fluoro-2-(((2R,7aS)-2-fluorotetrahydro-1H-pyrrolizin-7a(5H)-yl)methoxy)-9,10-dihydro-8H-7-oxa-1,3,6,10-tetraazacyclohepta[de]naphthalen-5-yl)benzo[d]thiazol-2-amine], in the test on HPAC cells, the IC50 (in general, the midpoint of a concentration-inhibition curve) was at least 2 µM.

Consider `Cc1nc(N)c(Cl)c(-c2nc3c4c(nc(OC[C@@]56CCCN5C[C@H](F)C6)nc4c2F)N([C@H](C)c2cccnc2N)CCO3)c1C(F)(F)F` (atropisomer, axis not shown; (aS)) [Example 601a, 4-((R)-10-((R)-1-(2-aminopyridin-3-yl)ethyl)-4-fluoro-2-(((2R,7aS)-2-fluorotetrahydro-1H-pyrrolizin-7a(5H)-yl)methoxy)-9,10-dihydro-8H-7-oxa-1,3,6,10-tetraazacyclohepta[de]naphthalen-5-yl)-3-chloro-6-methyl-5-(trifluoromethyl)pyridin-2-amine], for which the IC50 turned out to be 0.00234 µM in the test with pERK in SW620 cells and 0.0336 µM in the test on HPAC cells.

As to `Cc1c(F)c(N)cc(-c2nc3c4c(nc(OC[C@@H]5CC(F)(F)CN5C)nc4c2F)N([C@H](C)c2nccnc2N)CCO3)c1C(F)(F)F` [Example 8, 3-((R)-1-(5-(5-amino-4-fluoro-3-methyl-2-(trifluoromethyl)phenyl)-2-(((S)-4,4-difluoro-1-methylpyrrolidin-2-yl)methoxy)-4-fluoro-8,9-dihydro-10H-7-oxa-1,3,6,10-tetraazacyclohepta[de]naphthalen-10-yl)ethyl)pyrazin-2-amine], the IC50 in the test on HPAC cells was at least 2 µM.

Turning to `Cc1nc(N)c(Cl)c(-c2nc3c4c(nc(OC[C@@]56CCCN5C[C@H](F)C6)nc4c2F)N([C@H](C)c2cccnc2N)CCO3)c1C(F)(F)F` (single isomer, unassigned) [Example 601b], the IC50 was 0.0156 µM in the test with pERK in SW620 cells, 0.0802 µM in the test on H1975 cells, 0.0093 µM with SW620 cells and 0.0867 µM in the test on HPAC cells.
